Measured values taken from article PMC11345841, “Exploring 2-Sulfonylpyrimidine Warheads as Acrylamide Surrogates for Targeted Covalent Inhibition: A BTK Story” (Journal of Medicinal Chemistry, 2024).
Read-outs that look alike come from different tables or passages of the source.

How the values were obtained:
Assay in all cases: KINOMEscan ScanTK
Assay type in all cases: binding
[1] = biological target: T1, RET (Homo sapiens, UniProt P07949)
T1 construct: purchased Eurofins DiscoverX KINOMEscan (scanTK)

[2] = biological target: T2, EPHA3 (Homo sapiens, UniProt P29320)
T2 construct: purchased Eurofins DiscoverX KINOMEscan (scanTK)
T2 sequence (P29320 21-983): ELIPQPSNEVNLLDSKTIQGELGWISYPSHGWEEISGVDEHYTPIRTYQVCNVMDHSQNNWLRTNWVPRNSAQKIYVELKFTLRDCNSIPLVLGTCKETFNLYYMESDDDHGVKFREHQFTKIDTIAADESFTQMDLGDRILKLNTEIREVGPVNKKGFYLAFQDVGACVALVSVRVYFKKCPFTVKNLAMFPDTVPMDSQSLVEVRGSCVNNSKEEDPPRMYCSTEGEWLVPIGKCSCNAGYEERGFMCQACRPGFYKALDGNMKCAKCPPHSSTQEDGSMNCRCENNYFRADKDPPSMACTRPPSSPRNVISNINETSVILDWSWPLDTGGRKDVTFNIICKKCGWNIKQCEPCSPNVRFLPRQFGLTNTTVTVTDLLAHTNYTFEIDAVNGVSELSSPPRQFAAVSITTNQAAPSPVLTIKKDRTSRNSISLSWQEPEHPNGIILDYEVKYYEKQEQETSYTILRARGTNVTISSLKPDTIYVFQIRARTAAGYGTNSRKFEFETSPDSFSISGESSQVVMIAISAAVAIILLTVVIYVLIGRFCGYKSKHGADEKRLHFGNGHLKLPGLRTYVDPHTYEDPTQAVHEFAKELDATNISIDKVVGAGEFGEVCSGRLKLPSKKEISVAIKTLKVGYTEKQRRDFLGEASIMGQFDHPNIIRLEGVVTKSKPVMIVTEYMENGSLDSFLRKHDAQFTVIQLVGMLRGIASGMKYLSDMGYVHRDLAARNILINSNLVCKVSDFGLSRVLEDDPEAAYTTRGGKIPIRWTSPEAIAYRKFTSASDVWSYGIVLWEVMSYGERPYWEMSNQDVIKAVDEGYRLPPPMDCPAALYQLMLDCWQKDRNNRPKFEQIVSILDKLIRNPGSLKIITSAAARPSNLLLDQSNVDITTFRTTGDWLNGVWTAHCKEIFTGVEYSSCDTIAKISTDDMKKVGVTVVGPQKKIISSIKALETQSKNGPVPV

[3] = biological target: T3, EPHA7 (Homo sapiens, UniProt Q15375)
T3 construct: purchased Eurofins DiscoverX KINOMEscan (scanTK)

[4] = biological target: T4, FES (Homo sapiens, UniProt P07332)
T4 construct: purchased Eurofins DiscoverX KINOMEscan (scanTK)

[5] = biological target: T5, TIE1 (Homo sapiens, UniProt P35590)
T5 construct: purchased Eurofins DiscoverX KINOMEscan (scanTK)

[6] = biological target: T6, ABL1-phosphorylated (Homo sapiens, UniProt P00519)
T6 construct: purchased Eurofins DiscoverX KINOMEscan (scanTK)

[7] = biological target: T7, KIT(V559D) (Homo sapiens, UniProt P10721, V559D)
T7 construct: purchased Eurofins DiscoverX KINOMEscan (scanTK)

[8] = biological target: T8, EPHB6 (Homo sapiens, UniProt O15197)
T8 construct: purchased Eurofins DiscoverX KINOMEscan (scanTK)
T8 sequence (O15197 32-1021): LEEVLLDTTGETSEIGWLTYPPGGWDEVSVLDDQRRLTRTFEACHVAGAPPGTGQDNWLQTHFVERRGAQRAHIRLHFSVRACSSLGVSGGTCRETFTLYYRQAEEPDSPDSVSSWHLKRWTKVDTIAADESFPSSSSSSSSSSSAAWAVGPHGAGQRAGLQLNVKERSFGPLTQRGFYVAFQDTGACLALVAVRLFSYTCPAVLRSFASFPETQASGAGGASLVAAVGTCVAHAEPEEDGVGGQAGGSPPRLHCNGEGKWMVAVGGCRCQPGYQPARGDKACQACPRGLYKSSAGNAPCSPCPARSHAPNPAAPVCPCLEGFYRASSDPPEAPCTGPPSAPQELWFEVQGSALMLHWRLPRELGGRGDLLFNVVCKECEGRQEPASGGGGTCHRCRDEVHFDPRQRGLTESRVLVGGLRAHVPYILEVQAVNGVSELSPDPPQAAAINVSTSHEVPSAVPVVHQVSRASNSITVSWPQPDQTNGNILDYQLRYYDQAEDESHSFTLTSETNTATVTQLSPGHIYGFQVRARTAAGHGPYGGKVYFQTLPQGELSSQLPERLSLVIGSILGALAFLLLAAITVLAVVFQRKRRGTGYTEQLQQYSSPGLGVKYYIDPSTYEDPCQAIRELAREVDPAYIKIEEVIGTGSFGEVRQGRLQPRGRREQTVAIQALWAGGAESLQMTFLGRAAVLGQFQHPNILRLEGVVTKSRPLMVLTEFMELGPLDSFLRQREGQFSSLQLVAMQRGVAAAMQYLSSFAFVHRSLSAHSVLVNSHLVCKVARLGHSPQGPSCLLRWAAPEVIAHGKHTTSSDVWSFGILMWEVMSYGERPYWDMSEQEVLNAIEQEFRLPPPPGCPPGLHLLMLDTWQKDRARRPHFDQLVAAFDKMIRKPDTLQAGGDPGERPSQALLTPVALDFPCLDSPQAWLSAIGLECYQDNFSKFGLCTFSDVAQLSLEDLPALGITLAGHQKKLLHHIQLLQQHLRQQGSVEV

[9] = biological target: T9, EGFR(L858R) (Homo sapiens, UniProt P00533, L858R)
T9 construct: purchased Eurofins DiscoverX KINOMEscan (scanTK)

[10] = biological target: T10, ABL1(T315I)-phosphorylated (Homo sapiens, UniProt P00519, T315I)
T10 construct: purchased Eurofins DiscoverX KINOMEscan (scanTK)

[11] = biological target: T11, KIT(A829P) (Homo sapiens, UniProt P10721, A829P)
T11 construct: purchased Eurofins DiscoverX KINOMEscan (scanTK)

[12] = biological target: T12, ABL1(Q252H)-phosphorylated (Homo sapiens, UniProt P00519, Q252H); conditions: for difference in %Control versus reference Ib at 1 µM: read-out: % difference (compound - Ib %Control)
T12 construct: purchased Eurofins DiscoverX KINOMEscan (scanTK)

T4 sequence (P07332 whole entry): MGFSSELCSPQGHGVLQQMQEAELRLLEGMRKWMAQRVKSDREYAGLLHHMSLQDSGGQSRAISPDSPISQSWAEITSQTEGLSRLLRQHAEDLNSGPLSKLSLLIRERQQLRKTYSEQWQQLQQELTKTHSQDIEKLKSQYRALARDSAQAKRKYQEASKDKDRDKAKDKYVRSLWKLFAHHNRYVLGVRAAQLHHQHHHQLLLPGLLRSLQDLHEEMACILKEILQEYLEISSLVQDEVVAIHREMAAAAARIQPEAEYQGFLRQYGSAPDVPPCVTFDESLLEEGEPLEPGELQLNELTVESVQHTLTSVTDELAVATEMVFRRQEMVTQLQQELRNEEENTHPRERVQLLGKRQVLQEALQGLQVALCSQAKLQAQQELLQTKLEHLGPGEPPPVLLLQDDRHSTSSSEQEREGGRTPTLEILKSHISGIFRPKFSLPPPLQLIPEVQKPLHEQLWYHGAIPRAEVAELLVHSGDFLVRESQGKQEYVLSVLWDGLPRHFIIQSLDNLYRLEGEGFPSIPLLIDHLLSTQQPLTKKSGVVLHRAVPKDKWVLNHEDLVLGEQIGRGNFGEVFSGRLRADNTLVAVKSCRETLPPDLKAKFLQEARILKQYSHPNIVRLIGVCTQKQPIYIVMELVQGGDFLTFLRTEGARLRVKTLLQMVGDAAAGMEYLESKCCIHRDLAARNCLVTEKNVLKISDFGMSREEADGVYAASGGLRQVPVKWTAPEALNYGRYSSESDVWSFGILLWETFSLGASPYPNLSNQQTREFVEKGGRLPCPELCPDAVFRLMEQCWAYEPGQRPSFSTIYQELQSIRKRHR
T1 sequence (P07949 29-1114): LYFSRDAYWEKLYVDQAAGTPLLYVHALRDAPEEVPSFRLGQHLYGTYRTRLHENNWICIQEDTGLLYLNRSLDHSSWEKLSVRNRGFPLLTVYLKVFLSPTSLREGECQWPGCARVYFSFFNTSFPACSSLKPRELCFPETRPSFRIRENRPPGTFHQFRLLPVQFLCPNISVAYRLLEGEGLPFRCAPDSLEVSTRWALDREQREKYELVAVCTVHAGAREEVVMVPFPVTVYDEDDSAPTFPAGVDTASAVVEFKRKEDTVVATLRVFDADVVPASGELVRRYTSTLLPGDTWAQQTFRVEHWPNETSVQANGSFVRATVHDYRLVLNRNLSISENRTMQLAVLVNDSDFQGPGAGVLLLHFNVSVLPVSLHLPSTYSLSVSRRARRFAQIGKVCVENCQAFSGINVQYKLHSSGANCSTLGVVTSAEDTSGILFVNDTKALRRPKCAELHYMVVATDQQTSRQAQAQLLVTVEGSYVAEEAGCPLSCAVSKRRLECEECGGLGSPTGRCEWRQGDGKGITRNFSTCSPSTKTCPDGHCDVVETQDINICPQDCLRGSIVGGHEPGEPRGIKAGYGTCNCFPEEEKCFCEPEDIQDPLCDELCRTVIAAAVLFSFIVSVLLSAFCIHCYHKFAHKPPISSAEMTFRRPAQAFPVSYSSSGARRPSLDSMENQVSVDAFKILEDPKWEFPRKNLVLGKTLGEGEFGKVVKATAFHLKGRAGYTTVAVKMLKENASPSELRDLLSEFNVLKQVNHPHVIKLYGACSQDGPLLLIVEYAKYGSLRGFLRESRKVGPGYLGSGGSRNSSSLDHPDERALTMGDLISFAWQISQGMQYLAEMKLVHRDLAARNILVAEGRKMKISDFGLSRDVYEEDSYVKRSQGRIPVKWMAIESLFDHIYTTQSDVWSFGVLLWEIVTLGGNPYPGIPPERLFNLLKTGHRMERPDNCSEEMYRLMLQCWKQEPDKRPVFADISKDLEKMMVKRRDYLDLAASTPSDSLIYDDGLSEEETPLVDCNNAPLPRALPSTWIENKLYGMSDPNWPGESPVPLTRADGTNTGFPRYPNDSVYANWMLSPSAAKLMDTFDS
T3 sequence (Q15375 28-998): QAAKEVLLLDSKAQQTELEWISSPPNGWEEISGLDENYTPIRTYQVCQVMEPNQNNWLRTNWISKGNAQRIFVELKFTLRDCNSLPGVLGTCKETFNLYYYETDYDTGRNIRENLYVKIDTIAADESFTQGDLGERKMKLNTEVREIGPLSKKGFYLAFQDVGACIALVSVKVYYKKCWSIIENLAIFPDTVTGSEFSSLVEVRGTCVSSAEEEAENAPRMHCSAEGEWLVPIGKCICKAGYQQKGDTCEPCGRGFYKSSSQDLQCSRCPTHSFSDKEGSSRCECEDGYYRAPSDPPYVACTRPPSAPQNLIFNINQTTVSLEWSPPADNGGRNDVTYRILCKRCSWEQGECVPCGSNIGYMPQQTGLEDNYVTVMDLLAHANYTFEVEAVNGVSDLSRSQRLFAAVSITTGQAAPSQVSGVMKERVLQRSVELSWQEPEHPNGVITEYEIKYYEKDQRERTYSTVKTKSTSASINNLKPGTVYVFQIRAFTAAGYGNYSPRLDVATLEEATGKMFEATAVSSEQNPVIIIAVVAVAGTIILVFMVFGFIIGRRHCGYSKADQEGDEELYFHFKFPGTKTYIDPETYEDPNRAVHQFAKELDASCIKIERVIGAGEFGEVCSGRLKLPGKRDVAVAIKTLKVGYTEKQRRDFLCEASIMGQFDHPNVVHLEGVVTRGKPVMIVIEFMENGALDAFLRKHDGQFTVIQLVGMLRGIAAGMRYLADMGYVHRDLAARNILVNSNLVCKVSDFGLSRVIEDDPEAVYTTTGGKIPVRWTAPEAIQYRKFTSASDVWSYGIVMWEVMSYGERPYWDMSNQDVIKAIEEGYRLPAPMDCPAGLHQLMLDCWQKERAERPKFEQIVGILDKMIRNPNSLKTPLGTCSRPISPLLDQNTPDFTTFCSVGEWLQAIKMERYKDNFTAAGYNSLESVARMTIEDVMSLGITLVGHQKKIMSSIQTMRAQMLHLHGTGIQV
T11 sequence (P10721 26-976 A829P): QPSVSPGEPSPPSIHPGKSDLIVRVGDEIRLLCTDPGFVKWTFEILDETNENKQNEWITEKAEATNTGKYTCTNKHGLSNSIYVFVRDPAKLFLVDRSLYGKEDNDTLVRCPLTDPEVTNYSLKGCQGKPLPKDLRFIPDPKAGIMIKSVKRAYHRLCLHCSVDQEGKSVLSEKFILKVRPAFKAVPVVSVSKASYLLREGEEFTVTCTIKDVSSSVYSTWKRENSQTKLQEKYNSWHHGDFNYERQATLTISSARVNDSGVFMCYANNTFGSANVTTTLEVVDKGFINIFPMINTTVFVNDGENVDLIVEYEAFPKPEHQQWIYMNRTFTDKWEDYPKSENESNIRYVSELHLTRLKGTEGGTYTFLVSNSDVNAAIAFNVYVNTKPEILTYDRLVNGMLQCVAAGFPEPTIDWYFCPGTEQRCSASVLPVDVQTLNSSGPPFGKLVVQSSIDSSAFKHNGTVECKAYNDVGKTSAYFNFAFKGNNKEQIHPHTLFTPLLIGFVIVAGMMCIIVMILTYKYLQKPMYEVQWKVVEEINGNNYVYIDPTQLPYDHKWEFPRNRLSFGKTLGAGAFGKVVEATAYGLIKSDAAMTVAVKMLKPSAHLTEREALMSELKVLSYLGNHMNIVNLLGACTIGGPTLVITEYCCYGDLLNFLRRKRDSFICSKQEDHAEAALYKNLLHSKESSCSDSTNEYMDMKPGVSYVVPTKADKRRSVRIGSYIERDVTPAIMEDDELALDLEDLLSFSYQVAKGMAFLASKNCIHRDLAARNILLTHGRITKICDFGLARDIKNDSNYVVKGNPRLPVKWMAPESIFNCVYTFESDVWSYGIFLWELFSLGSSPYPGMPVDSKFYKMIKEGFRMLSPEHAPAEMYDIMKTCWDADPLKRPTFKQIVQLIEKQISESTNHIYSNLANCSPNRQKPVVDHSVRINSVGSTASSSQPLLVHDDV
T5 sequence (P35590 22-1138): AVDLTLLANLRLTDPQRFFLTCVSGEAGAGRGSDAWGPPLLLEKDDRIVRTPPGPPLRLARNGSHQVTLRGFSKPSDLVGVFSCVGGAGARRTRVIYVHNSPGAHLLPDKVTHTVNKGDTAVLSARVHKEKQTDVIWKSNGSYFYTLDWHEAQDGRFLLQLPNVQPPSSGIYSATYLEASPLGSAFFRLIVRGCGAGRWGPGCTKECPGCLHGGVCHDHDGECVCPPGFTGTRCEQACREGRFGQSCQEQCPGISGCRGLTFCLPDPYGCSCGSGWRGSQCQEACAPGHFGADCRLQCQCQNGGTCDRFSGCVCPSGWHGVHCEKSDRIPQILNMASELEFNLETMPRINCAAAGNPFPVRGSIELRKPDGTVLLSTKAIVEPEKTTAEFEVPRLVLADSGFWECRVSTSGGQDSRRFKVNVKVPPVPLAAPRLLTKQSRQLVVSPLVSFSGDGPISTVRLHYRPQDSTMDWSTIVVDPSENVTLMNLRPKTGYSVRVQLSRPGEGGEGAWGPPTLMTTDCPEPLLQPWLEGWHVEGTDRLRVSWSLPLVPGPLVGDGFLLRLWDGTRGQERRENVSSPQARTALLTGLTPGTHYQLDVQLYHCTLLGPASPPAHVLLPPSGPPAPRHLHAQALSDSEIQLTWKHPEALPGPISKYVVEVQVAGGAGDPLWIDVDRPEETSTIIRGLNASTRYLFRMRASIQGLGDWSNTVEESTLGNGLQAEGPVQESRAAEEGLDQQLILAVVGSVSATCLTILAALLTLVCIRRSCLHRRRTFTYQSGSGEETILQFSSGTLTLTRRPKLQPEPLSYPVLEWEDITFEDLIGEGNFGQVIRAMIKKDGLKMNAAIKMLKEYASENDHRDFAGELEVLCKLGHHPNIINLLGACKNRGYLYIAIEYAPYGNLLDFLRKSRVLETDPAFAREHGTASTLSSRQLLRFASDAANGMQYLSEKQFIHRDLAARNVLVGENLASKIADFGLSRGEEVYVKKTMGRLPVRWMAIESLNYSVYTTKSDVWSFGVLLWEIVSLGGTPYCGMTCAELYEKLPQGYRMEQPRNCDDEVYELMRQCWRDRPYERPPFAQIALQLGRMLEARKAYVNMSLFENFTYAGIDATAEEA
T7 sequence (P10721 26-976 V559D): as the sequence (P10721 26-976 A829P) above, with V534D, P804A counted along it

Compound	remaining binding at 1 µM ([1]; @1000nM, read-out: %Control) [%]	remaining binding at 1 µM ([1]; read-out: %Control @1000nM) [%]	remaining binding at 1 µM ([2]; @1000nM, read-out: %Control) [%]	remaining binding at 1 µM ([2]; read-out: %Control @1000nM) [%]	remaining binding at 1 µM ([3]; @1000nM, read-out: %Control) [%]	remaining binding at 1 µM ([3]; read-out: %Control @1000nM) [%]	remaining binding at 1 µM ([4]; @1000nM, read-out: %Control) [%]	remaining binding at 1 µM ([4]; read-out: %Control @1000nM) [%]	remaining binding at 1 µM ([5]; @1000nM, read-out: %Control) [%]	remaining binding at 1 µM ([5]; read-out: %Control @1000nM) [%]	remaining binding at 1 µM ([6]; @1000nM, read-out: %Control) [%]	remaining binding at 1 µM ([6]; read-out: %Control @1000nM) [%]	remaining binding at 1 µM ([7]; @1000nM, read-out: %Control) [%]	remaining binding at 1 µM ([7]; read-out: %Control @1000nM) [%]	remaining binding at 1 µM ([8]; @1000nM, read-out: %Control) [%]	remaining binding at 1 µM ([8]; read-out: %Control @1000nM) [%]	%Control difference from compound Ib at 1 µM ([9]; @1000nM) [%]	remaining binding at 1 µM ([9]; @1000nM, read-out: %Control) [%]	remaining binding at 1 µM ([9]; read-out: %Control @1000nM) [%]	difference in % of control versus compound Ib at 1 µM ([2]; @1000nM) [%]	other results
C=CC(=O)N1CCC[C@@H](n2nc(-c3ccc(Oc4ccccc4)cc3)c3c(N)ncnc32)C1 [Compound 1g, Ibrutinib, reference compound]	12	12	76	76	95	95	100	100	57	57	60	60	27	27	18	18					
Cc1cnc(S(C)(=O)=O)nc1N1CCCC(n2nc(-c3ccc(Oc4ccccc4)cc3)c3c(N)ncnc32)C1 (stereo not shown) [Compound 8a, 1-(1-(5-Methyl-2-(methylsulfonyl)pyrimidin-4-yl)piperidin-3-yl)-3-(4-phenoxyphenyl)-1H-pyrazolo[3,4-d]pyrimidin-4-amine]	56	56	81	81	97	97	100	100	89	89	80	80	37	37	24	24	81.1	83	83	5	difference in %Control versus compound Ib at 1 µM ([3]; @1000nM): 2%; difference in %Control versus compound Ib at 1 µM ([4]; @1000nM): 0%; difference in %Control from compound Ib at 1 µM ([6]; @1000nM): 20%; difference in %Control versus compound Ib at 1 µM ([10]; @1000nM): -9%; remaining binding at 1 µM ([10]; @1000nM, read-out: %Control): 70%; remaining binding at 1 µM ([10]; read-out: %Control @1000nM): 70%; difference in %Control versus compound Ib at 1 µM ([8]; @1000nM): 6%; remaining binding at 1 µM ([11]; @1000nM, read-out: %Control): 84%; remaining binding at 1 µM ([11]; read-out: %Control @1000nM): 84%; difference in %Control versus reference Ib at 1 µM ([12]; @1000nM): 4%; remaining binding at 1 µM ([12]; @1000nM, read-out: %Control): 98%; remaining binding at 1 µM ([12]; read-out: %Control @1000nM): 98%
COC(=O)c1cnc(S(C)(=O)=O)nc1N1CCCC(n2nc(-c3ccc(Oc4ccccc4)cc3)c3c(N)ncnc32)C1 (stereo not shown) [Compound 8b, Methyl 4-(3-(4-Amino-3-(4-phenoxyphenyl)-1H-pyrazolo[3,4-d]pyrimidin-1-yl)piperidin-1-yl)-2-(methylsulfonyl)pyrimidine-5-carboxylate]	56	56	77	77	93	93	100	100	77	77	79	79	75	75	8.9	8.9	72.1	74	74	1	difference in %Control versus compound Ib at 1 µM ([3]; @1000nM): -2%; difference in %Control versus compound Ib at 1 µM ([4]; @1000nM): 0%; difference in %Control from compound Ib at 1 µM ([6]; @1000nM): 19%; difference in %Control versus compound Ib at 1 µM ([10]; @1000nM): -11%; remaining binding at 1 µM ([10]; @1000nM, read-out: %Control): 68%; remaining binding at 1 µM ([10]; read-out: %Control @1000nM): 68%; difference in %Control versus compound Ib at 1 µM ([8]; @1000nM): -9.1%; remaining binding at 1 µM ([11]; @1000nM, read-out: %Control): 70%; remaining binding at 1 µM ([11]; read-out: %Control @1000nM): 70%; difference in %Control versus reference Ib at 1 µM ([12]; @1000nM): -2%; remaining binding at 1 µM ([12]; @1000nM, read-out: %Control): 92%; remaining binding at 1 µM ([12]; read-out: %Control @1000nM): 92%
CCOC(=O)c1cnc(S(C)(=O)=O)nc1N1CCC[C@@H](n2nc(-c3ccc(Oc4ccccc4)cc3)c3c(N)ncnc32)C1 [Compound 8c, Ethyl (R)-4-(3-(4-Amino-3-(4-phenoxyphenyl)-1H-pyrazolo[3,4-d]pyrimidin-1-yl)piperidin-1-yl)-2-(methylsulfonyl)pyrimidine-5-carboxylate]	84	84	77	77	97	97	96	96	60	60	57	57	70	70	72	72	64.1	66	66	1	difference in %Control versus compound Ib at 1 µM ([3]; @1000nM): 2%; difference in %Control versus compound Ib at 1 µM ([4]; @1000nM): -4%; difference in %Control from compound Ib at 1 µM ([6]; @1000nM): -3%; difference in %Control versus compound Ib at 1 µM ([10]; @1000nM): -7%; remaining binding at 1 µM ([10]; @1000nM, read-out: %Control): 72%; remaining binding at 1 µM ([10]; read-out: %Control @1000nM): 72%; difference in %Control versus compound Ib at 1 µM ([8]; @1000nM): 54%; remaining binding at 1 µM ([11]; @1000nM, read-out: %Control): 73%; remaining binding at 1 µM ([11]; read-out: %Control @1000nM): 73%; difference in %Control versus reference Ib at 1 µM ([12]; @1000nM): -2%; remaining binding at 1 µM ([12]; @1000nM, read-out: %Control): 92%; remaining binding at 1 µM ([12]; read-out: %Control @1000nM): 92%
